Counter-ions that a name gives are not always drawn.
Test system: Gli1 transcript in Shh-stimulated Daoy cells
Experiment: Functional assay for measuring the inhibition of Gli1 in Daoy cells (bDNA assay)
Type: cell-based
Settings: Homo sapiens; Daoy cells stimulated with Shh conditioned media, 24 hours incubation with compound, Gli1 transcript by bDNA luminescence
Procedure: Biological activity is determined using a functional assay in Daoy neuronal cancer cells and measures levels of Gli1 ribonucleic acid via a bDNA (branched deoxyribonucleic acid) assay system (Panomics, Inc., Fremont, Calif.). Gli was originally discovered in a Glioblastoma cell line and encodes a zinc finger protein that is activated by Shh signaling. The maximum response is obtained by inducing Gli1 transcription in the Daoy cells with conditioned medium (human embryonic kidney, HEK-293 cells stably expressing recombinant Shh) for 24 hours and then measuring the amount of stimulated Gli1 transcript. […]
The bDNA assay system utilizes the technology of branched-chain DNA to allow amplification of a target ribonucleic acid (transcript). […] The addition of a chemilumigenic substrate during the amplification step allows for detection using luminescence. […]
Daoy cells are grown to confluency in tissue culture T225-flasks in Daoy growth media containing Minimum Essential Medium (MEM) plus 10% Fetal Bovine Serum (FBS) with […] non-essential amino acids and 1 mM sodium pyruvate. The cells are removed from the T225-flasks using trypsin ethylenediaminetetraacetic acid (EDTA), centrifuged, resuspended in media, and then counted. […]

IC50: ~1.26 nM
SMILES: Cc1c(-c2ccccc2)nnc(N2CCN(C(=O)NC3CCC(F)(F)CC3)[C@@H](C)C2)c1C [Example 1, (S)—N-(4,4-Difluorocyclohexyl)-4-(4,5-dimethyl-6-phenylpyridazin-3-yl)-2-methylpiperazine-1-carboxamide hydrochloride]
